In ChEMBL document CHEMBL5316318, “Structural Modification and Pharmacological Evaluation of Substituted Quinoline-5,8-diones as Potent NSD2 Inhibitors” (J Med Chem, 2023):

Legend:
[1] = biological target: T1, Histone-lysine N-methyltransferase NSD2 (Homo sapiens, UniProt O96028); assay: Inhibition of recombinant human NSD2 (941 to 1240 residues) using SAM as substrate incubated for 3 hrs by AlphaLISA assay
T1 sequence (O96028 whole entry): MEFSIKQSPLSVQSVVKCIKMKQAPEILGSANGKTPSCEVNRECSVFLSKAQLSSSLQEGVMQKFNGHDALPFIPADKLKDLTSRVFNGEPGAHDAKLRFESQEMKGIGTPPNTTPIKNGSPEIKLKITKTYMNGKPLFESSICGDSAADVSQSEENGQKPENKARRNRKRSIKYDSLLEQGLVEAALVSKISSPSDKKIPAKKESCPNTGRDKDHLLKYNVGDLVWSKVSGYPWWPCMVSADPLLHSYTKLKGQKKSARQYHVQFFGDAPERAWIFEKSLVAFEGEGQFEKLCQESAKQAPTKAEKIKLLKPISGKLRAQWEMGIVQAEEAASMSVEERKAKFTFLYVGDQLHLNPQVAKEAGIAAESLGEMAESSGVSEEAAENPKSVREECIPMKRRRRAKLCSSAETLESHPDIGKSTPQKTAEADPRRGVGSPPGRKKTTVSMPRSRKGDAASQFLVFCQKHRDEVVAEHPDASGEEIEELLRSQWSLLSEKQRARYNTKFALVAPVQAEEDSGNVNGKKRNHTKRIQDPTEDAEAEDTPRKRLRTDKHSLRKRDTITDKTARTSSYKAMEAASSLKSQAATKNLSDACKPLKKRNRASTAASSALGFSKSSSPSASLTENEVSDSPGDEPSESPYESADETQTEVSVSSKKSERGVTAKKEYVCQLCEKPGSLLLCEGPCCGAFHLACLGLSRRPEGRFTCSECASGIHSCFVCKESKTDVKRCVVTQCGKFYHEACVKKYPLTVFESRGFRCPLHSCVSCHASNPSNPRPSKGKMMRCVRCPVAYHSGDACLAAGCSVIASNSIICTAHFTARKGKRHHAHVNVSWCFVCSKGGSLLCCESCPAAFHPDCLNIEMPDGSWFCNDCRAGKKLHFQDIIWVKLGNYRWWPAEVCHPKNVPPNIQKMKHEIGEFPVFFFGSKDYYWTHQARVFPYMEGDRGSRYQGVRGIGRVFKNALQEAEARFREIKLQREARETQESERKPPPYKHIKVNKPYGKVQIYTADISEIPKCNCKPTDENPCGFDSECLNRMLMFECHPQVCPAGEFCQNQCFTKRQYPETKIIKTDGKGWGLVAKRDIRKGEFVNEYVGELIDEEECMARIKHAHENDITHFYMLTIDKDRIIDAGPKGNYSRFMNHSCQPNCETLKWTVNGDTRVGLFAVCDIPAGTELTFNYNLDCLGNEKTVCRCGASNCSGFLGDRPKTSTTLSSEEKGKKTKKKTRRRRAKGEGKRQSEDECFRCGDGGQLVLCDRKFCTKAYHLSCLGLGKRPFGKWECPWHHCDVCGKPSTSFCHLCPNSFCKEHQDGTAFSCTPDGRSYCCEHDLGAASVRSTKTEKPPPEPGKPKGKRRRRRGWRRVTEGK

[2] = Cmax in ICR mouse at 3 mg/kg, po measured for 24 hrs by LC-MS/MS analysis; type: ADME, organism-based; parameters: dose 3 mg/kg, time 24 hrs, route po; conditions: in vivo
KMS-11 = assay: Antiproliferative activity against human KMS-11 cells assessed as inhibition of cell growth incubated for 6 days by CCK-8 assay; type: functional, cell-based; conditions: KMS-11, 144 h
[3] = Oral bioavailability in ICR mouse at 3 mg/kg measured for 24 hrs by LC-MS/MS analysis; type: ADME, organism-based; conditions: in vivo
[4] = Observed clearance in ICR mouse at 1 mg/kg, iv measured for 24 hrs by LC-MS/MS analysis; type: ADME, organism-based; conditions: in vivo
[5] = Half life in ICR mouse at 3 mg/kg, po measured for 24 hrs by LC-MS/MS analysis; type: ADME, organism-based; conditions: in vivo
[6] = Apparent permeability coefficient, Papp in MDCK cells; type: ADME, cell-based, Canis lupus familiaris; conditions: dog
[7] = AUClast in ICR mouse at 3 mg/kg, po measured for 24 hrs by LC-MS/MS analysis; type: ADME, organism-based; parameters: dose 3 mg/kg, time 24 hrs, route po; conditions: in vivo
[8] = Tmax in ICR mouse at 3 mg/kg, po measured for 24 hrs by LC-MS/MS analysis; type: ADME, organism-based; conditions: in vivo
[9] = AUClast in ICR mouse at 1 mg/kg, iv measured for 24 hrs by LC-MS/MS analysis; type: ADME, organism-based; parameters: dose 1 mg/kg, time 24 hrs, route iv; conditions: in vivo
[10] = Half life in ICR mouse at 1 mg/kg, iv measured for 24 hrs by LC-MS/MS analysis; type: ADME, organism-based; conditions: in vivo
[11] = biological target: T1, Histone-lysine N-methyltransferase NSD2; assay: Inhibition of human NSD2 SET domain-mediated H3K36 methylation using histone H3 as substrate by colorimetric analysis
[12] = biological target: T1, Histone-lysine N-methyltransferase NSD2; assay: Inhibition of human NSD2 (934 to 1241 residues) expressed in Escherichia coli BL21 (DE3) using [3H]-SAM as substrate incubated for 1 hr by TopCount radioactivity counter
[13] = biological target: T1, Histone-lysine N-methyltransferase NSD2; assay: Inhibition of human NSD2 SET domain (948 to 1239 residues)-mediated mono-methylation activity assessed as reduction in H3K36me1 level incubated for 1 hr

Structure (SMILES)	IC50 [1]	further results
CC#CC(=O)N1CCC2(CC1)CN(C1=C(Cl)C(=O)c3cccnc3C1=O)C2	0.76 µM	–
CC(F)(F)C(=O)NC12CC(NC3=C(Cl)C(=O)c4ncccc4C3=O)(C1)C2	0.33 µM	Cmax [2]: 707 ng/mL; IC50 (KMS-11): 0.35 µM; bioavailability [3]: 53.1%; clearance [4]: 33.4 mL/min/kg; half-life [5]: 5.12 h; Papp [6]: 49.4 ×10⁻⁶ cm/s; AUC(0-t) at 24 h [7]: 758 ng·h/mL; Tmax [8]: 0.42 h; AUC(0-t) at 24 h [9]: 476 ng·h/mL; half-life [10]: 1.92 h
CC#CC(=O)NC1CN(C2=C(Cl)C(=O)c3ncccc3C2=O)C1	0.59 µM	–
O=C1C(Cl)=C(NCCC2(O)CCN(C(=O)C3CC3(F)F)CC2)C(=O)c2ncccc21 (stereo unspecified)	0.2 µM	IC50 (KMS-11): 3.94 µM; Papp [6]: 21.5 ×10⁻⁶ cm/s
O=C1C(Cl)=C(NCCc2c[nH]c3ccccc23)C(=O)c2ncccc21	0.45 µM	–
CC(F)(F)C(=O)NC1CN(C2=C(Cl)C(=O)c3ncccc3C2=O)C1	0.36 µM	–
CCN(c1cc(-c2ccc(CN3CCOCC3)cc2)cc(C(=O)NCc2c(C)cc(C)[nH]c2=O)c1C)C1CCOCC1 [TAZEMETOSTAT]	–	IC50 (KMS-11): > 20 µM
CC#CC(=O)NC1CN(C2=C(Cl)C(=O)c3cccnc3C2=O)C1	0.31 µM	–
C[C@@](O)(C(=O)NC12CC(NC3=C(Cl)C(=O)c4cccnc4C3=O)(C1)C2)C(F)(F)F	0.42 µM	–
O=C1C(NCCc2c[nH]c3ccccc23)=C(Cl)C(=O)c2ncccc21	2.29 µM	–
O=C1O[C@@H](C(=O)N2CCN(Cc3nc4sc5c(c4c(=O)[nH]3)CCCC5)CC2)Cc2ccccc21	–	IC50 [11]: 132 µM
Nc1ncnc2c1ncn2[C@@H]1O[C@H](C[C@@H](N)CC[C@H](N)C(=O)O)[C@@H](O)[C@H]1O [SINEFUNGIN]	–	IC50 [12]: 79 µM
COc1cc2nc(N3CCCN(C)CC3)nc(NC3CCN(Cc4ccccc4)CC3)c2cc1OC	–	IC50 [13]: 41 µM
CC(F)(F)C(=O)NC1CN(C2=C(Cl)C(=O)c3cccnc3C2=O)C1	0.47 µM	–
CC(F)(F)C(=O)NCCC1CN(C2=C(Cl)C(=O)c3cccnc3C2=O)C1	0.38 µM	–
CC(C)(O)[C@H](F)CNC1=C(Cl)C(=O)c2ccc(N3CCCC3)nc2C1=O	0.36 µM	–
O=C1C(NC2CCc3ccccc32)=C(Cl)C(=O)c2ncccc21 (stereo unspecified)	0.45 µM	–
O=C1C(Cl)=C(NC23CC(NC(=O)C4CC4(F)F)(C2)C3)C(=O)c2ncccc21 (stereo unspecified)	0.41 µM	–
CC#CC(=O)N1CCC2(CC1)CN(C1=C(Cl)C(=O)c3ncccc3C1=O)C2	2.48 µM	–
CC(F)(F)C(=O)NCCC1CN(C2=C(Cl)C(=O)c3ncccc3C2=O)C1	0.38 µM	–
CC(C)(O)[C@H](F)CNC1=C(Cl)C(=O)c2cccnc2C1=O	0.3 µM	IC50 (KMS-11): 1.68 µM; Papp [6]: 30.8 ×10⁻⁶ cm/s
CC(C)(O)[C@H](F)CNC1=C(Cl)C(=O)c2ccc(N3CCC(F)(F)C3)nc2C1=O	0.93 µM	–
